The values below come from patent US9856273B2, “ETP derivatives” (priority 2012, dated 2018).

For data set [1], the system named is MDA-MB-231 triple negative breast cancer cells. Briefly: Cell viability assay. In kind it is cell-based.
Data set [2] concerns BxPC3 pancreatic cancer cell line. Nature of the data set: MTS assay. It is filed as cell-based. As for the experimental part: (§1) MTS Assay: Panc1, BxPC3, or SU.86.86 cells were seeded in a 96-well plate at a density of 7500 cells/well prior to treatment with increasing amounts of ETP69 or DMSO vehicle control. Forty-eight hours post treatment cells were incubated with the MTS substrate (CellTiter 96 AQueous One Solution Cell Proliferation Assay, Promega, Madison, Wis.) according to the manufacturer's instructions. The absorbance was measured at 490 nm using a 96-well plate reader (Synergy 4, Biotek), and the data were normalized to the absorbance of DMSO-treated cells. IC50 values were determined using GraphPad Prism's non-linear regression function. See FIGS. 11, 21, 22A, 22B, 23, 24A, 24B, 24C, 25A and 25B.
(Tetrazolium dyes change colour on reduction, which living cells bring about.)

For data set [3], the system named is Panc1 pancreatic cancer cell line. Nature of the data set: MTS assay. As to conditions: Homo sapiens, PANC-1; Panc1, 48 h. It is filed as cell-based. As for the experimental part:
as §1

Data set [4] has as its system Su.86.86 pancreatic cancer cell line. Nature of the data set: MTS assay. In kind it is cell-based. The method, then:
as §1

For data set [5], the system named is p53. Nature of the data set: QPCR of p53 expression in Panc1 cells. To be noted: 100 nM-500 nM. It is filed as cell-based. The source says:
QPCR: Total RNA was isolated from cells using the RNeasy kit (Qiagen). The Tetro cDNA kit (Bioline) and SensiFast Probe kit (Bioline) were used to reverse-transcribe and amplify total RNA according to the manufacturer's protocol. The ProbeFinder software (Roche Applied Science) was used to design the primer sets for SUV39H1, p53 and GAPDH and to select the respective probes from the Universal ProbeLibrary (Roche Applied Science). Probe #13 and the following primers were used for the SUV39H1 assay: 5′ […] (SEQ ID NO: 1) and 5′ […] (SEQ ID NO:2). Probe #21 and the following primers were used for the p53 assay: 5′ […] (SEQ ID NO:3) and 5′ […] (SEQ ID NO:4). Probe #60 and the following primers were used for the GAPDH assay: 5′ agccacatcgctcagacac (SEQ ID NO:5) and 5′ gcccaatacgaccaaatcc (SEQ ID NO:6). All samples were run in triplicates. Amplifications were performed on a Bio-Rad CFX96 Touch Multiple-Color Real-time PCR Detection System. The data were normalized to the GAPDH expression and the relative expression levels were calculated using the 2^−ΔΔCt method.

Data set [6] concerns SKOV3 ovarian cancer cells. Briefly: Annexin V-FITC apoptosis assay. It is filed as cell-based, human. As to conditions: 48 h. The method, then: Apoptosis Determinations (FIG. 11): Apoptosis assays of human SKOV3 ovarian cancer cells based on […] were carried out using Annexin V-FITC. Briefly, cells were seeded in 6-well plates, incubated overnight at 37° C. in 5% (v/v) CO2 and exposed to ETP69 in a dose-dependent manner for 48 h. DMSO was used as the vehicle control. Cells were analyzed using a FACScan flow cytometer to quantify fluorescence. Apoptotic cells were defined as Annexin V-FITC positive. Each experiment was performed in quadruplicate.

Data set [7] relates to p53 tumor suppressor. Nature of the data set: Western blot, induction of p53. To be noted: A2058, DU145, A549 and SKOV3 cells (SKOV3 cells do not express p53 protein). It is filed as cell-based, human. As for the experimental part:
Induction of p16, p53, p21waf1 and p27 (FIGS. 8 and 9): Western blot analyses were performed with specific antibodies. Briefly, human A2058 melanoma, DU145 prostate, A549 non-small lung and SKOV3 ovarian cancer cells were treated with ETP69. Whole-cell lysates (40 […]g) were resolved by SDS-PAGE. Primary specific antibodies to p53, p21^WAF1, p27(Kip1), p16 and Actin were diluted in PBS (pH 7.5) with 5% (w/v) nonfat milk and 0.1% (v/v) Tween-20 over night at 4° C. Horseradish peroxidase-conjugated secondary antibodies were incubated in PBS (pH 7.5) with 5% (w/v) nonfat milk and 0.1% (v/v) Tween-20 for 1 h at room temperature. Positive immuno-reactive proteins were detected using the ECL system (Pierce, Rockford, Ill.).

Data set [8] concerns SKOV3 xenografts. It is filed as in vivo, mouse. As to conditions: SKOV3 xenograft, 2.5 mg/kg IP once daily for 18 days. As for the experimental part: Human SKOV3 cancer cells (4×10^6) were resuspended in serum-free McCoy's medium and Matrigel (ration of 1:1) and subcutaneously injected into the flank of 5-6 weeks old female NOD/SCID/IL-2rg(ko)(NSG). When palpable tumor sizes reached at approximately 50 mm^3, mice were divided into two groups (vehicle=9, treatment=9). Then, ETP69 was administered with IP injection at 2.5 mg/kg with vehicle (5% DMSO+15% Solutol+80% H2O), once daily for 18 days. Tumor volumes were calculated by the formula 1/2a×b^2, where a is the long diameter, and b is the short diameter. Tumor volumes correlate with tumor weights. The statistical significance of group differences was analyzed using a Student's t-test with the two-tailed distribution. P values less than 0.05 were considered statistically significant.

Data set [9] has as its system T315I mutant KCL-22 CML cells. Briefly: MTS cell viability assay. It is filed as cell-based. As to conditions: Homo sapiens. As for the experimental part:
(§2) IC50 Determinations for Ovarian, Liver, Pancreatic, CML, AML Cancer Cell Lines (See e.g. FIGS. 4, 6A-6C, 21, 22A, 22B, 23, 24A-24C, 25A, 25B and 34): MTS assays were performed for cell viability. SKOV3 ovarian cancer, Huh-7 hepatocellular carcinoma, MIA-PaCa2 pancreatic cancer, KCL-22 CML, T315I mutant KCL-22 CML, MOLM-13 AML and MV4-11 AML cells were seeded in 96-well plates (5000 cells/well for solid tumors, 10000 cells/well for blood tumors), incubated overnight at 37° C. in 5% CO2, and exposed to racemic ETP69 or S enantiomer in a dose-dependent manner for 48 h. Dimethyl sulfoxide (DMSO) was used as the vehicle control. Viable cell numbers were determined by tetrazolium conversion to its formazan dye and absorbance was measured at 490 nm using an automated ELISA plate reader. Each experiment was performed in quadruplicate.

Data set [10] deals with MV4-11 AML cells. Nature of the data set: MTS cell viability assay. It is filed as cell-based. To be noted: Homo sapiens. The method, then:
as §2

For data set [11], the system named is Huh-7 hepatocellular carcinoma cells. Briefly: MTS cell viability assay. In kind it is cell-based. To be noted: Homo sapiens. As for the experimental part: as §2
For data set [12], the system named is KCL-22 CML cells. Nature of the data set: MTS cell viability assay. In kind it is cell-based. To be noted: Homo sapiens. As for the experimental part: as §2

By IC50 is commonly meant the concentration needed to halve the response being measured. As for `CN1C(=O)[C@@]23C[C@](C)(C#N)[C@H](c4ccc5c(c4)OCO5)N2C(=O)[C@]1(C)SS3` (racemic) [ETP69, Rac-(3S,6S,7S,8aS)-6-(Benzo[d][1,3]dioxol-5-yl)-2,3,7-trimethyl-1,4-dioxohexahydro-6H-3,8a-epidithiopyrrolo[1,2-a]pyrazine-7-carbonitrile], the viability inhibition result in data set [1] is reported as “viability inhibition”. The killing of cells entry in [2] (BxPC3, 100 nM to 1000 nM) is “significant killing”; in data set [4] (SU86.86, 100 nM to 1000 nM) it was “significant killing”. The IC50 in data set [2] (Homo sapiens, BXPC-3, BxPC3, 48 h) was found to be 210 nM; in data set [3], 824 nM; in data set [4] (Homo sapiens, SU.86.86, 48 h), 86 nM; in data set [9], 170 nM; in data set [10], 1.8 nM; in data set [11], 3.3 nM. In data set [12], the IC50 worked out at 180 nM. Moreover, the “up-regulation of p53” value in [5] is recorded as no less than 3 fold. For the same compound, the apoptosis result in [6] was “induces apoptosis”. In addition, the “induction of p53” value in data set [7] is recorded as “induces”. In addition, the toxicity symptoms entry in data set [8] is reported as “no observable toxicity symptoms”. The tumor volume entry in data set [8] is on record as “decreased”. The tumor weight result in [8] was “decreased”.
